Measured values reported in patent US5824533A, “Orpinomyces xylanase proteins and coding sequences” (University of Georgia Research Foundation, Inc., priority 1995, dated 1998).
“And” between values parts separate entries of the source, which are not always exact repeats. Identical values can stand only once. “Also recorded” adds a separate entry of the source.

Test system: Orpinomyces sp. strain PC-2 endoxylanase XynA-1 (purified native enzyme, 29 kDa)
Assay: Effect of reagents on purified endoxylanase activity (residual activity on oat spelt xylan)
Format: biochemical
Experimental: Enzyme assays: All enzyme assays were carried out in duplicate and in 50 mM piperazine/HCl buffer at pH 5.5 and 40° C. unless otherwise stated.
a. Xylanase activity was assayed by mixing a 0.2 ml aliquot of diluted enzyme with 0.4 ml buffer containing 1.0% (w/v) oat spelt xylan (Sigma Chemical Co., St. Louis, Mo.), preheated to 40° C. After 15 min at 40° C., the reaction was terminated by the addition of 1.2 ml of 3,5-dinitrosalicylic acid (DNS) (Miller, 1959), followed by 0.2 ml of 2.5N NaOH to dissolve the residual water-insoluble xylan. The reaction tube was then placed in boiling water for 5 min before determining the absorbance at 550 nm (A550 nm). Xylose was used as the standard.
The effects of various metal ions and reagents on xylanase activity were determined in 50 mM piperazine-HCl, pH 5.5. The enzyme and metal ions or reagents (1 and 3 mM) were preincubated at 22° C. for 10 min; residual activities were measured at 40° C.

[1] = reagent 1 mM, preincubated 22° C. 10 min, residual activity at 40° C., 50 mM piperazine-HCl pH 5.5, control without reagent = 100%
[2] = reagent 3 mM, preincubated 22° C. 10 min, residual activity at 40° C., 50 mM piperazine-HCl pH 5.5, control without reagent = 100%
[3] = reagent 1 and 3 mM, 50 mM piperazine-HCl pH 5.5

Relative activity (%) [1]	Relative activity (%) [2]	Compound	Effect on xylanase activity (in words) [3]	Effect on xylanase activity (in words) (pH 5.5)	Relative activity (%) (pH 5.5)	Effect on xylanase activity (in words) (reagent 1 mM)
85.5%	63.3%	O=[N+]([O-])c1ccc(O)c(CBr)c1 [2-Hydroxy-5-nitroxyl-5-nitrobenzyl-bromide]	inhibitory	–	–	–
–	–	O=C(O)CN(CCN(CC(=O)O)CC(=O)O)CC(=O)O [EDTA]	–	do not significantly effect xylanase activity	96.3% and 93.7%	–
0%	0%	O=C1CCC(=O)N1Br [N-Bromosuccinimide]	–	–	–	total inactivation; also recorded: completely inhibited
96.7%	95.4%	OCCS [β-Mercaptoethanol]	do not significantly effect xylanase activity	–	–	–

Compound	Relative activity (%) [1]	Relative activity (%) [2]	Effect on xylanase activity (in words) [3]	Effect on xylanase activity (in words) (pH 5.5)	Relative activity (%) (pH 5.5)	Effect on xylanase activity (in words) (reagent 1 mM)
O=C(O)c1cc[c]([Hg+])cc1.[OH-] [Hydroxymercuribenzoate, p-hydroxymercuribenzoate]	0%	0%	–	–	–	total inactivation
